Numbered stars: 1 amine (or outer) side, 2 acyl side, 3 side chain; on linkers, the order of the positions; unused ones are H or OH. Bridge positions count the residues as written; N and C are the ends. Ends that are not written are not given here. acetyl = K(acetyl): lysine side chain modified with a haloacetyl group whose halogen is replaced by the thiol of another residue, giving a thioether ring, O=C(C[*:1])[*:2]; COCH2 = acetyl group that carries the bridge

46 substances from US20260008818A1, “CYCLIC PEPTIDE OR SALT THEREOF, AND USES THEREOF” (FUJIFILM Corporation, priority 2023, published 2026) can be followed below.

The assay has as its system Recombinant Human FGFR1 alpha (IIIc) Fc Chimera Protein. Put plainly: Binding affinity of enzymatically synthesized cyclic peptide to FGFR by ELISA. The conditions noted are these: luminescence signal at reaction concentration 10 nmol/L, SEQ ID NO: 39 standardized to 1, enzyme synthesis product. The method, then:
The binding affinity of the cyclic peptide to FGFR was evaluated using an ELISA method.
The binding affinity of the enzymatically synthesized cyclic peptide to FGFR was measured by evaluating the amount of the cyclic peptide bound to FGFR by ELISA.
First, 5 ng of Recombinant Human FGFR1 alpha (IIIc) Fc Chimera Protein CF (R&D systems, 658-FR-050) was immobilized in each well of a 96-well plate, and blocked with Pierce Protein-Free (PBS) Blocking Buffer (Thermo, 37572), and a cyclic peptide diluted with Can Get Signal Immunoreaction Enhancer Solution I (TOYOBO, NKB-101) was then added and reacted at room temperature for 3 hours. After washing with 0.05% Tween 20-containing phosphate buffered saline (PBS), an anti-Myc antibody (Cell Signaling, 14038S) diluted with Can Get Signal Immunoreaction Enhancer Solution II (TOYOBO, NKB-101) was added and reacted at room temperature for 2 hours. After washing with 0.05% Tween 20-containing PBS, SuperSignal ELISA Femto Substrate (Thermo, 37075) was added, and the luminescence amount was measured. The dose-response relationship was calculated from using the difference between the luminescence amount in the well in which FGFR was immobilized and the luminescence amount in the well in which FGFR was not immobilized, and the concentration of the cyclic peptide at the time of reaction, and the binding affinity to FGFR was evaluated according to the following evaluation criteria. The evaluation result preferably satisfies the evaluation criteria A, B, or C.
In a case where a value of a luminescence signal emitted by the cyclic peptide set forth in SEQ ID NO: 39 at a reaction concentration of 10 nmol/L is standardized to 1, evaluation criteria of the luminescence signal value emitted by the cyclic peptide at a reaction concentration of 10 nmol/L is as follows. • A: 0.7 or more • B: 0.5 or more and less than 0.7 • C: 0.1 or more and less than 0.5 • D: less than 0.1.
A general note: In an ELISA, binding on a coated surface is turned into a signal by an enzyme label.
As to “353 (PCVQQISPHPWGAPFWVVTSK(COCH2)Y; thioether 2-21) [compound 353]”, the “Evaluation result of binding affinity to FGFR” value (“Evaluation result” below) is “B (0.5 or more and less than 0.7)”.

Consider “271 (QCWSQVSTPWGHTAPFIFK(COCH2)D; thioether 2-19 (inferred)) [compound 271]”, for which the “Evaluation result” value was “B (0.5 or more and less than 0.7)”.

On to “213 (HCSYERLQFHGHEAPFRVK(COCH2)Y; thioether 2-19 via Ac; not fully specified) [compound 213]”, for which the “Evaluation result” value is reported as “A (0.7 or more)”.

For “286 (HCSYEKLQFHGHEAPFRVK(COCH2)V; thioether 2-19 (inferred)) [compound 286]”, the “Evaluation result” value was “A (0.7 or more)”.

Regarding “224 (HK(COCH2)SYERLQFHGHEAPFRVCV; thioether 2-19 (inferred)) [compound 224]”, the “Evaluation result” value is “B (0.5 or more and less than 0.7)”.

“314 (HCTFERLIFLGHIAPFWVK(COCH2)R; thioether 2-19 (inferred)) [compound 314]”: the “Evaluation result” value was “C (0.1 or more and less than 0.5)”.

On to “90 (HCNYERLQFHGHEAPFRVKV; not fully specified; Description of Artificial Sequence: Cyclic peptide) [compound 90]”, for which the “Evaluation result” value was “A (0.7 or more)”.

Consider “210 (HCSYERLQFHGHEAPFRVK(COCH2)G; thioether 2-19 via Ac; not fully specified) [compound 210]”, for which the “Evaluation result” value is “B (0.5 or more and less than 0.7)”.

For “152 (HCSYERLNFHGHEAPFRVK(COCH2)V; thioether 2-19 (inferred)) [compound 152]”, the “Evaluation result” value was “A (0.7 or more)”.

Regarding “198 (HCSYERLQFHGHEAPFQVK(COCH2)V; thioether 2-19 via Ac) [compound 198]”, the “Evaluation result” value is “B (0.5 or more and less than 0.7)”.

As to “237 (HK(COCH2)TWERLIFLGHLAPFWVCR; thioether 2-19 (inferred)) [compound 237]”, the “Evaluation result” value is “B (0.5 or more and less than 0.7)”.

Regarding “195 (HCSYERLQFHGHEAPFYVK(COCH2)V; thioether 2-19 via Ac) [compound 195]”, the “Evaluation result” value is on record as “A (0.7 or more)”.

“187 (HCSYERLQFHGHTAPFRVK(COCH2)V; thioether 2-19 via Ac) [compound 187]”: the “Evaluation result” value is given as “A (0.7 or more)”.

On to “219 (HCSYERLQFHGHEAPFRVK(COCH2)T; thioether 2-19 via Ac; not fully specified) [compound 219]”, for which the “Evaluation result” value was “A (0.7 or more)”.

For “305 (HCSYERLQFHGHMAPFRVK(COCH2)V; thioether 2-19 (inferred)) [compound 305]”, the “Evaluation result” value was “A (0.7 or more)”.

As to “338 (PCLAPYGWVILDWGLVSNWK(COCH2)Y; thioether 2-20 (inferred)) [compound 338]”, the “Evaluation result” value is “C (0.1 or more and less than 0.5)”.

For the substance “227 (YK(COCH2)TWERLIFLGHIAPFWVCR; thioether 2-19 (inferred)) [compound 227]”, the “Evaluation result” value was “C (0.1 or more and less than 0.5)”.

Regarding “151 (HCSYERLWFHGHEAPFRVK(COCH2)V; thioether 2-19 (inferred)) [compound 151]”, the “Evaluation result” value was “A (0.7 or more)”.

As for “339 (YCITQHPWAPFWVVNPWDNK(COCH2)L; thioether 2-20 (inferred)) [compound 339]”, the “Evaluation result” value is “C (0.1 or more and less than 0.5)”.

In the case of “268 (VCRLSFWGHAAPFLSVK(COCH2)T; thioether 2-17 (inferred)) [compound 268]”, the “Evaluation result” value is “C (0.1 or more and less than 0.5)”.

Turning to “64 (HCSYERLQFHGHEAPFAVK(COCH2)V; thioether 2-19 (inferred)) [compound 64]”, the “Evaluation result” value is “B (0.5 or more and less than 0.7)”.

Take “91 (HCQYERLQFHGHEAPFRVK(COCH2)V; thioether 2-19 via acetyl; not fully specified; printed as H-(C)-QYERLQFHGHEAPFRV-(K(acetyl))-V) [compound 91]”: the “Evaluation result” value was “A (0.7 or more)”.

On to “326 (HCSYERLQFHGHIAPFWVK(COCH2)V; thioether 2-19 (inferred)) [compound 326]”, for which the “Evaluation result” value is listed as “A (0.7 or more)”.

Consider “371 (CERLIFHGHEAPFWVK(COCH2)V; thioether 1-16) [compound 371]”, for which the “Evaluation result” value is given as “A (0.7 or more)”.

As for “355 (RCYFSRQGFWPFTYKLPFWVK(COCH2)H; thioether 2-21) [compound 355]”, the “Evaluation result” value is “C (0.1 or more and less than 0.5)”.

In the case of “260 (ECVLQRLFFEGHLAPFILK(COCH2)I; thioether 2-19 (inferred)) [compound 260]”, the “Evaluation result” value is “B (0.5 or more and less than 0.7)”.

In the case of “56 (ACSYERLQFHGHEAPFRVK(COCH2)V; thioether 2-19 (inferred)) [compound 56]”, the “Evaluation result” value is reported as “A (0.7 or more)”.

Take “162 (HCSYERLQWHGHEAPFRVK(COCH2)V; thioether 2-19 (inferred)) [compound 162]”: the “Evaluation result” value was “B (0.5 or more and less than 0.7)”.

“275 (WCIRRLYSPWGHVAPFWVK(COCH2)P; thioether 2-19 (inferred)) [compound 275]”: the “Evaluation result” value was “B (0.5 or more and less than 0.7)”.

As to “335 (HCSYERLIFRGHIAPFWVK(COCH2)V; thioether 2-19 (inferred)) [compound 335]”, the “Evaluation result” value is “A (0.7 or more)”.

Regarding “281 (FCTIQQLILVNHRAPFWVK(COCH2)T; thioether 2-19 (inferred)) [compound 281]”, the “Evaluation result” value is “B (0.5 or more and less than 0.7)”.

Turning to “123 (HCSYIRLQFHGHEAPFRVK(COCH2)V; thioether 2-19 (inferred)) [compound 123]”, the “Evaluation result” value was “B (0.5 or more and less than 0.7)”.

As for “72 (FCSYERLQFHGHEAPFRVK(COCH2)V; thioether 2-19 (inferred)) [compound 72]”, the “Evaluation result” value is reported as “A (0.7 or more)”.

Turning to “270 (QCYVQLYVWGHPAPFYWDK(COCH2)T; thioether 2-19 (inferred)) [compound 270]”, the “Evaluation result” value is “C (0.1 or more and less than 0.5)”.

On to “323 (HCTWERLIFLGHIAPFHVK(COCH2)R; thioether 2-19 (inferred)) [compound 323]”, for which the “Evaluation result” value is recorded as “A (0.7 or more)”.

In the case of “251 (DCIWRVTISGHLAPFWFK(COCH2)Y; thioether 2-18 (inferred)) [compound 251]”, the “Evaluation result” value was “B (0.5 or more and less than 0.7)”.

As to “358 (NCWVQWFLSGHVVPFLVSLK(COCH2)S; thioether 2-20) [compound 358]”, the “Evaluation result” value is “C (0.1 or more and less than 0.5)”.

In the case of “256 (NCWGYHYTIPFIK(COCH2)F; thioether 2-13 (inferred)) [compound 256]”, the “Evaluation result” value is “B (0.5 or more and less than 0.7)”.

Take “253 (ICWTQLVLDGLYAPFLHK(COCH2)S; thioether 2-18 (inferred)) [compound 253]”: the “Evaluation result” value is “C (0.1 or more and less than 0.5)”.

For “125 (HCSYFRLQFHGHEAPFRVK(COCH2)V; thioether 2-19 (inferred)) [compound 125]”, the “Evaluation result” value is “C (0.1 or more and less than 0.5)”.

Turning to “170 (HCSYERLQFNGHEAPFRVK(COCH2)V; thioether 2-19 (inferred)) [compound 170]”, the “Evaluation result” value is “B (0.5 or more and less than 0.7)”.

For the substance “87 (HCFYERLQFHGHEAPFRVKV; not fully specified; Description of Artificial Sequence: Cyclic peptide) [compound 87]”, the “Evaluation result” value is on record as “A (0.7 or more)”.

Take “324 (HCTWERLIFLGHIAPFWVK(COCH2)V; thioether 2-19 (inferred)) [compound 324]”: the “Evaluation result” value was “B (0.5 or more and less than 0.7)”.

With “317 (HCTWERLRFLGHIAPFWVK(COCH2)R; thioether 2-19 (inferred)) [compound 317]”, the “Evaluation result” value was “C (0.1 or more and less than 0.5)”.

As for “75 (NCSYERLQFHGHEAPFRVK(COCH2)V; thioether 2-19 (inferred)) [compound 75]”, the “Evaluation result” value was “A (0.7 or more)”.

As for “331 (HCSYERLIFHGHLAPFWVK(COCH2)V; thioether 2-19 (inferred)) [compound 331]”, the “Evaluation result” value was “A (0.7 or more)”.
